These results are taken from publication PMC10522709, “Rational design and characterization of cell-selective antimicrobial peptides based on a bioactive peptide from Crocodylus siamensis hemoglobin” (Scientific Reports, 2023).

For one series, the system named is E. coli (ATCC25922). Kind of series: Time-killing kinetics assay. The format is cell-based, Escherichia coli. On the procedure: (§1) The time-killing kinetics of peptide was determined as described previously by Yaraksa et al.[16] In short, E. coli (ATCC25922) and S. epidermidis (ATCC12228) cells grown overnight were diluted in the Nutrient broth to a concentration of 1 × 10^6 CFU/mL. The diluted bacterial suspension (50 µL) was incubated with the peptide solution (50 µL, final concentration = 1 × MIC or 2 × MIC) at 37 °C. 10 µL of the mixture was taken at regular time intervals (0, 15, 30, 60, 180, 360, 540 and 720 min for 1 × MIC and 0, 30, 60, 180, 360, 720, 1440, 2160 and 2880 min for 2 × MIC), diluted and cultured on nutrient agar plates for 24 h. Bacterial cells were then counted and a graph of the log CFU/mL against incubation time was plotted to evaluate the rate at which peptides kill bacterial cells.

In series [1] the test system is Pseudomonas aeruginosa (ATCC 27853). The format is cell-based. To be noted: ATCC 27853, 18 h. On the procedure:
(§2) Broth microdilution assays were performed as reported previously. In short, the bacteria including Escherichia coli (ATCC 25922), Klebsiella pneumoniae (ATCC 27736), Pseudomonas aeruginosa (ATCC 27853), Bacillus subtilis (ATCC 6633), Staphylococcus aureus (ATCC 25923) and Staphylococcus epidermidis (ATCC 12228) were grown in Nutrient broth to mid-log phase at 37 °C. The bacterial suspension (50 μL, concentration of 1 × 10^6 CFU/mL) was loaded into a well with serially diluted peptide (50 µL, final concentrations ranging from 0–200 μg/mL) in a sterile 96-well plate and incubated at 37 °C for 18 h. The optical density (OD) at 600 nm was measured using a microplate reader (ALLSHENG, Zhejiang, China) in order to determine the growth of the bacteria. The inhibition was estimated using the formula; %inhibition=OD600ofcontrol-OD600ofsample/OD600ofcontrol-OD600ofblank×100 where minimal inhibitory concentration (MIC) is defined as the minimum concentration that inhibited 90% of bacterial growth.

Series [2] has as its system Staphylococcus epidermidis (ATCC 12228). The format is cell-based. As to conditions: ATCC 12228, 18 h. On the procedure: as §2
Series [3] deals with Staphylococcus aureus (ATCC 25923). The format is cell-based. To be noted: ATCC 25923, 18 h. The method, then: as §2
The test system of series [4] is Bacillus subtilis (ATCC 6633). The class given is cell-based. To be noted: ATCC 6633, 18 h. On the procedure: as §2
In series [5] the test system is Klebsiella pneumoniae (ATCC 27736). The class given is cell-based. To be noted: ATCC 27736, 18 h. The method, then: as §2
Series [6] concerns Escherichia coli (ATCC 25922). The format is cell-based. As to conditions: ATCC 25922, 18 h. The method, then: as §2
For series [7], the system named is Pseudomonas aeruginosa (ATCC 27853). The format is cell-based. As to conditions: ATCC 27853, 24 h. The method, then:
as §2
(§3) In order to evaluate the minimal bactericidal concentration (MBC)—the lowest concentration that terminates the growth of bacteria on an agar plate—of the peptide, co-culture medium (100 μL) from each well after the microdilution assay was spread on a nutrient agar plate. Plates were maintained at 37 °C for 24 h and the number of colonies formed was counted to evaluate antimicrobial activity.

The test system of series [8] is Staphylococcus epidermidis (ATCC 12228). The format is cell-based. As to conditions: ATCC 12228, 24 h. On the procedure: as §2, §3
The test system of series [9] is Staphylococcus aureus (ATCC 25923). The format is cell-based. As to conditions: ATCC 25923, 24 h. The method, then:
as §2, §3

The test system of series [10] is Bacillus subtilis (ATCC 6633). The format is cell-based. As to conditions: ATCC 6633, 24 h. The method, then:
as §2, §3

The test system of series [11] is Klebsiella pneumoniae (ATCC 27736). The class given is cell-based. As to conditions: ATCC 27736, 24 h. The method, then:
as §2, §3

The test system of series [12] is Escherichia coli (ATCC 25922). The format is cell-based. To be noted: ATCC 25922, 24 h. The method, then: as §2, §3
The test system of series [13] is S. epidermidis (ATCC12228). Kind of series: Time-killing kinetics assay. The format is cell-based, Staphylococcus epidermidis. To be noted: 1 × MIC, 37 °C, colony count. The method, then:
as §1

The next series has as its system human erythrocytes. The class given is cell-based. To be noted: red cells of human, 1 h. On the procedure: Human whole blood was obtained from Blood Transfusion Center Faculty of Medicine Khon Kaen University (ethical approval number HE601010). Fresh human erythrocytes were carefully mixed with PBS (1:3) and centrifuged at 1000 × g for 2 min. The supernatant was discarded and the cell pellet was resuspended to 2% w/v in PBS. 100 µL of the resuspended erythrocytes were incubated with the peptide (10 µL, final concentrations ranging from 12.5 to 100 μg/mL, two-fold serial dilution) at 37 °C for 1 h. After the treatment, the plate was centrifuged and the supernatant was taken to determine the optical density at 415 nm using a microplate reader (ALLSHENG, Zhejiang, China). The positive control for this assay was the addition of Triton X-100 (1% v/v), which causes 100% hemolysis. The negative control was cells treated with PBS buffer only. The hemolysis activity was estimated using the equation: %hemolysis=OD415ofsample/OD415ofTritonX-100treatedcontrol×100

Ends that are not written are not given here.

By MIC is commonly meant the least concentration at which growth counts as inhibited. The low end stands for inhibition by little substance, the high end for a need for much substance. As a reminder, the MBC is the smallest concentration meeting the test's criterion for killing. Read a high MBC as less potent killing. As to IKHWKKVWKHAKKVL [IL15.3], the increase in antimicrobial activity vs QL17 was above 1000 fold. The “time to inhibit the growth kinetic rate” value in the series with E. coli (ATCC25922) (1 × MIC, 37 °C, 1 × 10^6 CFU/mL, colony count) is given as at most 60 min. Besides, in the series with E. coli (ATCC25922) (1 × MIC, 37 °C, colony count), the “time to completely stop growth” value was 180 min. Further, in the series with E. coli (ATCC25922) (2 × MIC, 37 °C, colony count), the “time to begin to inhibit growth kinetic rate” value is at most 30 min and the “time to fully kill the cells” value is at most 180 min. The regrowth of cells entry in the series with E. coli (ATCC25922) (2 × MIC, after 48 h) is “did not allow the cells to regrow”. This sequence showed an MIC in [1] of 10 µg/mL. In series [2], this sequence displayed an MIC of 9 µg/mL. In series [3], this sequence gave an MIC of 12 µg/mL. For the same sequence, the MIC in series [4] was 8 µg/mL. The sequence also had an MIC in [5] of 10 µg/mL. In series [6], this sequence yielded a minimal inhibitory concentration (MIC) of 4 µg/mL. Also, the MBC in [7] was 18 µg/mL. Also, the MBC in [8] worked out at 12 µg/mL. In addition, the MBC in series [9] came out at 25 µg/mL. Also, the MBC in series [10] stood at 12 µg/mL. In addition, in series [11], the MBC came out at 25 µg/mL. Moreover, the MBC in series [12] is 6 µg/mL. The “time to inhibit the growth kinetic rate” value in series [13] (1 × 10^6 CFU/mL) is listed as at most 180 min. The “time to completely stop growth” value in series [13] is reported as 360 min. Moreover, the “Hemolysis concentration50 (HC50)” value with human erythrocytes is above 2000 µg/mL.
